In publication PMC10961359, “Targeting hexokinase 2 for oral cancer therapy: structure-based design and validation of lead compounds” (Frontiers in Pharmacology, 2024):

How the values were obtained:
Cal27 oral cancer cells = experiment: MTT antiproliferative assay, Cal27; assay type: cell-based; conditions: Homo sapiens, CAL-27; MTT, 72 h treatment; mean ± SEM; read-out: GI50 for Cal27
Procedure: FaDu cell line was cultured in RPMI-1640 medium containing L-glutamine (300 mg/L) and sodium bicarbonate (2 g/L), while Cal27, HEK293 and HFF-1 cell lines were cultured in DMEM medium containing glucose (4.5 g/L), L-glutamine (584 mg/L) and sodium bicarbonate (3.7 g/L). For gene expression and qPCR studies, RNA isolation was performed using Trizol (Thermo). The reagents and the primer sequences employed for the qPCR assays have been described previously ([Chakraborty et al., 2022]).
(§1) The hits derived from the docking study were sourced from either commercial suppliers or pre-existing compounds within our laboratory or were synthesized anew. The FaDu and Cal27 oral cancer cells were treated with the compounds for 72 h at concentrations of 3, 10, 30, and 100 μM. A post-treatment MTT assay was done to evaluate their antiproliferative activity. Table S2 represents the anti-proliferative and enzyme inhibitory activity of the compounds obtained as hits from the structure-based drug design strategy. […] Consequently, 50 μM of all the hit compounds were evaluated for their HK2 enzyme inhibitory activity. 50 μM of compounds were incubated with HK2 protein and the rate of reaction was assessed in kinetic mode (rate of conversion of NAD to NADH). The choice of 50 μM concentration was based primarily on MTT assays and GI50 calculation. The average GI50 values of the hit compounds against less sensitive FaDu cell line was approximately 50 μM. Considering this information, we reasoned that utilizing a concentration equivalent to the average GI50 would allow us to assess the maximum inhibitory effect of the compounds on HK2 enzyme activity. […] The same compounds have been previously reported by our team to have EGFR phosphorylation inhibitory potential and were coded as H2 (compound 14) and H10 (compound 11) ([Chakraborty et al., 2022]). […] Figures 1C,D show the lead compounds H2 and H10 at the active site of HK2 enzyme interacting via H-bonds with the amino acid residues.

Cal27 cells = experiment: Annexin V FITC / propidium iodide apoptosis assay, Cal27; assay type: cell-based; conditions: Cal27, 10 and 30 μM, 72 h
Procedure: FaDu and Cal27 cells were treated with the test compounds (0.5 million cells per treatment) for 72 h, and harvested for cell cycle analysis (Cat# BD340242) and apoptosis analysis (Cat# BD556547) by flow cytometry according to manufacturer’s instructions.
To determine the effect of HK2 inhibition in the progression of the cell cycle, flow cytometric analysis of compound-treated FaDu and Cal27 cells was carried out 72 h post-treatment. Cell cycle analysis is carried out to quantify the DNA content and estimate the percentages of the cell population in different cell cycle phases via propidium iodide staining. […] To determine the apoptosis-inducing activity of HK2 inhibitors, 10 and 30 μM of compounds H2 and H10 treated FaDu and Cal27 cells were stained with annexin V conjugated with FITC, followed by propidium iodide staining.

[1] = test system: EGFR tyrosine kinase receptor phosphorylation; design: method as in Chakraborty et al., 2022; conditions: 10 µM, 72 h of treatment; ref Chakraborty et al., 2022; cited from earlier work
HK2 = target: T1, HK2 (Homo sapiens, UniProt P52789); experiment: HK2 enzyme inhibition assay (Abcam kit ab211114); assay type: biochemical
T1 construct: purchased Abcam ab211114
T1 sequence (P52789 1-917): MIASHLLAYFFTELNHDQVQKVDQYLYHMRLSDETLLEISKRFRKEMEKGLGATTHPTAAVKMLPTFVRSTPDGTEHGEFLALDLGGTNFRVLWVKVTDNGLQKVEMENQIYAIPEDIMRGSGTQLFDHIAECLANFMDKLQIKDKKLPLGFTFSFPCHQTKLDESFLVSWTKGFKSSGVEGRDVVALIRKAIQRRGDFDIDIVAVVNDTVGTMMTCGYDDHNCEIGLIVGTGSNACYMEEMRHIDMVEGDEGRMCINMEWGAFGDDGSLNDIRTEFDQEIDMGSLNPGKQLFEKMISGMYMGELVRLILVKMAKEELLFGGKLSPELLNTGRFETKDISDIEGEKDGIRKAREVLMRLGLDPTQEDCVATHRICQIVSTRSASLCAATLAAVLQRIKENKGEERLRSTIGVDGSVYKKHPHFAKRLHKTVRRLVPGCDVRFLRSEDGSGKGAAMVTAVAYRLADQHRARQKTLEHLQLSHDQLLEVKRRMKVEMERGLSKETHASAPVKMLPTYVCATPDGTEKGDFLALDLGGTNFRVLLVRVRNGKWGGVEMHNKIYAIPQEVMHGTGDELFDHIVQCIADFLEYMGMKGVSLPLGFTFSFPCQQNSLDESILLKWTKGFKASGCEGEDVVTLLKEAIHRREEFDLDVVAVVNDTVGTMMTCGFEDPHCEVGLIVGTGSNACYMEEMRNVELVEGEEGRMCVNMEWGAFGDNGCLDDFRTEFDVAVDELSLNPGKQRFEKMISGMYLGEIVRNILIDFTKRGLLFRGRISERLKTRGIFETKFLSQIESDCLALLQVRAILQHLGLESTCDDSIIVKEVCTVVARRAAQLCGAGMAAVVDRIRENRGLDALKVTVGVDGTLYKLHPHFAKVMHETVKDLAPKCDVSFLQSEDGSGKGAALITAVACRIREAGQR
Procedure: The HK2 enzyme inhibition assay was performed using an HK2 inhibitor assay kit (Abcam, ab211114) according to the manufacturer’s instructions. Initially, 50 µM compound concentration was used to perform the enzyme activity inhibition studies, after which IC50 of the top leads were determined.
as §1

[2] = test system: EGFR tyrosine kinase phosphorylation in Cal27 cells; experiment: Western blot pEGFR in Cal27 lysates; assay type: cell-based; conditions: Cal27, 30 µM, 4 h post-treatment

COc1ccc(CNC(=O)c2nc3ccccc3s2)cc1O [Compound 14, N-(3-hydroxy-4methoxybenzyl)benzo[d]thiazole-2-carboxamide]
GI50 (Cal27 oral cancer cells): 21.7 µM | apoptosis-inducing activity (Cal27 cells): late apoptotic and necrotic effects | phosphorylation of the EGFR tyrosine kinase receptor [1]: inhibits the phosphorylation | inhibition at 50 µM (HK2; read-out: % inhibition of HK2 enzyme activity at 50 µM): 87% | IC50 (HK2; read-out: IC50 against HK2): 2.94 ± 0.2 µM | EGFR tyrosine kinase phosphorylation [2]: does not significantly impact
